Measurements: patent publication US20110112135A1, “Imidazo [1,2-A] Pyridine Compounds” (priority 2007, published 2011)

What was measured:
[1] = target: T1, human LXRβ (Homo sapiens, UniProt P55055); assay: Ligand-binding test procedure for human LXRβ (3H T0901317 tracer, flash plates); settings: biotinylated hLXRβ from E. coli extract; tracer 3H T0901317
T1 construct: biotin (biotinylated); made in house; host or cells: E. coli (crude extract)
T1 sequence (P55055 1-460): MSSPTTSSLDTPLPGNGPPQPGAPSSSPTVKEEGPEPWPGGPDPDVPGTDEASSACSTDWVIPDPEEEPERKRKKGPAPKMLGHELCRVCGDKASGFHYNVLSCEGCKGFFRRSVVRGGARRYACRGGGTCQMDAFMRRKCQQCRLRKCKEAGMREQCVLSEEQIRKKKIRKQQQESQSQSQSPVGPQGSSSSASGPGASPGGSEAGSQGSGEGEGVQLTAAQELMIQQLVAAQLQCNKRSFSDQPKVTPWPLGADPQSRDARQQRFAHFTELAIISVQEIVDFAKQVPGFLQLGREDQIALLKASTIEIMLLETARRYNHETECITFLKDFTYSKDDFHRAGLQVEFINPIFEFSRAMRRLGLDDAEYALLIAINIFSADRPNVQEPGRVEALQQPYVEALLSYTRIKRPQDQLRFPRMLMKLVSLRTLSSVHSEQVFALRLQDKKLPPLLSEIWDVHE
In short: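 Biotinylated hLXRβ from E. coli extract was captured on streptavidin flash plates (Bmax ~4000 cpm) at 4 °C overnight. Test ligand dilutions were mixed with 5 nM [3H]T0901317 tracer solution and incubated on the plates overnight at 4 °C; bound radioactivity was counted after washing.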

[2] = tested on: ABCA1 gene; assay: Quantitative analysis of ABCA1 gene regulation in THP-1 cells (real-time PCR); format: cell-based, human; settings: Gene regulation by LXR (Human), differentiated THP-1 cells, 18 hrs; for EC50: ABCA1 mRNA, read-out: EC50 ABCA1; for Emax: LXR agonist reference at 1.0 uM as positive control, read-out: Agonism ABCA1
Procedure: III. Quantitative Analysis of ABCA1 Gene Regulation in THP-1 Cells. The compounds of formula (I) effect on the regulation of the ABCA1 gene was evaluated using the following procedure. Materials and Methods Cell culture: The THP-1 monocytic cell line (ATCC #TIB-202) was obtained from American Type Culture Collection (Manassas, Va.) and cultured in RPMI 1640 medium (Gibco, Carlsbad, Calif.) containing 10% FBS, 2 mM L-glutamine, and 55 uM beta-Mercaptoethanol (BME). […] Louis, Mo.) for three days to induce differentiation into adherent macrophages. Differentiated THP-1 cells were treated with test compounds or ligands dissolved in DMSO (Sigma, D-8779) in culture medium lacking phorbal ester. […] Dose response effects were measured in duplicate, in the range of 0.001 to 30 micromolar concentrations and treated cells were incubated for an additional 18 hrs prior to RNA isolation. Unstimulated cells treated with vehicle were included as negative controls on each plate. […] L., J. Med. Chem. (2000), 45:1963-1966.). Results of antagonist analysis are expressed as % antagonism and IC50 (in μM). RNA isolation and quantitation: Total cellular RNA was isolated from treated cells cultured in 96-well plates using PrepStation 6100 (Applied Biosystems, Foster City, Calif.), according to the manufacturer's recommendations. RNA was resuspended in ribonuclease-free water and stored at -70° C. prior to analysis. RNA concentrations were quantitated with RiboGreen test procedure, #R-11490 (Molecular Probes, Eugene, Oreg.). Gene expression analysis: Gene-specific mRNA quantitation was performed by real-time PCR with the Perkin Elmer Corp. chemistry on an ABI Prism 7700 Sequence detection system (Applied Biosystems, Foster City, Calif.) according to the manufacturer's instructions. Samples (50-100 ng) of total RNA were assayed in duplicate or triplicate in 50 ul reactions using one-step RT-PCR and the standard curve method to estimate specific mRNA concentrations. Sequences of gene-specific primer and probe sets were designed with Primer Express Software (Applied Biosystems, Foster City, Calif.). […] Relative levels of ABCA1 mRNA are normalized using GAPDH mRNA or 18S rRNA probe/primer sets purchased commercially (Applied Biosystems, Foster City, Calif.). Statistics: Mean, standard deviation and statistical significance of duplicate evaluations of RNA samples were assessed using ANOVA, one-way analysis of variance using SAS analysis. Reagents: -GAPDH Probe and Primers-Taqman GAPDH Control Reagents 402869 or 4310884E 18S Ribosomal RNA-Taqman 18S Control Reagents 4308329 […] Qiagen Quantitect probe RT-PCR 204443.

[3] = target: T2, human LXRα (Homo sapiens, UniProt Q13133); assay: Ligand-binding test procedure for human LXRα (3H T0901317 tracer, flash plates); settings: biotinylated hLXRα from E. coli extract; tracer 3H T0901317
T2 construct: biotin (biotinylated); made in house; host or cells: E. coli (crude extract)
T2 sequence (Q13133 1-447): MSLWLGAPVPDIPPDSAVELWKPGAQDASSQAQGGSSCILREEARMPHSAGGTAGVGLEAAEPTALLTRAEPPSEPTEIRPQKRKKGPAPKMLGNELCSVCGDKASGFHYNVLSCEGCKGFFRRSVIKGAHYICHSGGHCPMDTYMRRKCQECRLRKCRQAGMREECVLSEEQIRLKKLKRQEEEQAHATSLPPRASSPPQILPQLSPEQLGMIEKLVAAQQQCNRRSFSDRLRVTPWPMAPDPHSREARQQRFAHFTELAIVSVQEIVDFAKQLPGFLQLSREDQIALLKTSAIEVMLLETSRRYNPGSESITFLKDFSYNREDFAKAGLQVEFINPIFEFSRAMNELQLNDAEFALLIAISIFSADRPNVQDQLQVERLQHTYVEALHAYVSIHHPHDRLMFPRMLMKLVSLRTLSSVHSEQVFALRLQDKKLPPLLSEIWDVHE
In short: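 Biotinylated hLXRα from E. coli extract (50 mM Tris) captured on streptavidin flash plates overnight at 4 °C. Compound dilution series mixed with 5 nM [3H]T0901317 (concentration before mixing), incubated overnight at 4 °C; wells aspirated, washed and remaining radioactivity counted.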

IC50 [1] [nM] | EC50 [2] [nM] | IC50 [3] [nM] | SMILES | Emax [2] [%]
117 | 590 | > 1000 | CCS(=O)(=O)c1cccc(Oc2ccc(-c3c(C(C)C)nc4c(C(F)(F)F)cccn34)cc2)c1 [Example 120, 3-{4-[3-(ethylsulfonyl)phenoxy]phenyl}-2-(1-methylethyl)-8-(trifluoromethyl)imidazo[1,2-a]pyridine] | 53
14 | 25 | 290 | COc1ccccc1-c1nc2c(C(F)(F)F)cccn2c1-c1ccc(Oc2cccc(S(C)(=O)=O)c2)cc1 [Example 126, 2-(2-methoxyphenyl)-3-{4-[3-(methylsulfonyl)phenoxy]phenyl}-8-(trifluoromethyl)imidazo[1,2-a]pyridine] | 30
30 | 135 | 370 | CS(=O)(=O)c1cccc(Oc2cccc(-c3c(Cn4ccnc4)nc4c(C(F)(F)F)cccn34)c2)c1 [Example 129, 2-(1H-imidazol-1-ylmethyl)-3-{3-[3-(methylsulfonyl)phenoxy]phenyl}-8-(trifluoromethyl)imidazo[1,2-a]pyridine] | 103

SMILES | IC50 [1] [nM] | EC50 [2] [nM] | IC50 [3] [nM] | Emax [2] [%]
CCCCOCc1nc2c(C(F)(F)F)cccn2c1-c1ccc(Oc2cccc(S(C)(=O)=O)c2)cc1 [Example 128, 2-(butoxymethyl)-3-{4-[3-(methylsulfonyl)phenoxy]phenyl}-8-(trifluoromethyl)imidazo[1,2-a]pyridine] | 28 | 40 | 430 | 76
